# Measurements published in patent publication US6673804B1, “Sulfonamide derivatives” (Sankyo Company, Limited, priority 1998, dated 2004).
# pIC50: −log10 of the molar value.
# Legend:
# [1] = molecular target: aglycanase; experiment: Aglycanase inhibition test (in vitro); type: biochemical; details: aglycanase from bovine nasal septum cartilage culture, aglycan-containing polyacrylamide particles, 37° C. for 2.5 hours
# Protocol: An aglycanase inhibition test can be conducted by, for example, measuring aglycanase activity in the presence or absence of a test compound according to the method of Nagase et al. (H. Nagase and J. F. Woessner, Analytical Biochemistry, vol. 107, 385-392, 1980).
# The enzyme used for measurement of aglycanase activity can be extracted from mammalian cartilage tissue itself or from its cultured medium. Extraction is performed by combining various types of chromatography, and the activity of aglycanase in the purification process can be detected by adding substrate (aglycan) to an eluted fraction and testing whether or not the substrate is cleaved. Whether or not the substrate is cleaved can be determined by performing imnunoblotting for the reaction liquid using an antibody that binds to the epitope, CNLeNIEGE, that is produced by cleavage of aglycan (substrate) by aglycanase (enzyme). It should be noted that antibody that binds to CNLeNIEGE can be prepared according to the method of Sandy et al. (J. D. Sandy et al., Journal of Biological Chemistry, vol. 270, 2550-2556, 1995).
# Bovine nasal septum cartilage was cultured for 7 days at 37° C. in the presence of 1 μm retinoic acid in DMEM [containing 20 mM N-2-hydroxyethyl-piperazine-N′-2-ethane sulfonic acid (HEPES), 0.005% bovine serum albumin (BSA), 5 μg/ml insulin-transferrin sodium selenite media supplement, 1% penicillin and 1% streptomycin] while changing the medium once a day. The culture liquid collected from day 3 to day 7 was subjected to chromatography [carrier: Q-sepharose (Pharmacia), mobile phase: 20 mM Tris-HCl buffer (pH 7.2) containing 5 mM calcium chloride] and the fraction that passed through the column was collected. This was then subjected to additional chromatography [carrier: Zn-chelating sepharose (Pharmacia), mobile phase: Tris-HCl buffer (pH 7.2) containing 5 mM calcium chloride and 0.5 M sodium chloride], followed by elution using imidazole as the mobile phase. The fraction of the resulting eluted fractions that was confirmed to have aglycanase activity was collected. Moreover, this was subjected to additional chromatography [carrier: LCA-agarose (Honen Corporation), mobile phase: 20 mM aqueous solution of 2-(N-morpholino)ethanesulfonic acid (pH 6.5) containing 5 mM calcium chloride and 0.25 M sodium chloride], followed by elution using 2-methylmannopyranoside as the mobile phase. The fraction of the resulting eluted fractions that was confirmed to have aglycanase activity was collected, and this fraction was used as the enzyme liquid for measurement of aglycanase activity.
# Separate from the above, antibody that binds with CNLeNIEGE was prepared according to the method of Sandy et al. (J. D. Sandy et al., Journal of Biological Chemistry, vol. 270, 2550-2556, 1995), and this antibody was used in immunoblotting to detect aglycanase activity in the above-mentioned purification process of the aglycanase. Immunoblotting was performed in accordance with conventional methods.
# Measurement of activity was performed using a modification of the protease activity measurement method that uses polyacrylamide particles of Nagase et al. (H. Nagase and J. F. Woessner, Analytical Biochemistry, vol. 107, 385-392, 1980).
# The aglycan used for the substrate was isolated from bovine nasal septum cartilage in accordance with cesium chloride sedimentation equilibrium centrifugation (New Biochemical Experimentation Course, 3, Saccharides II, 4-7, Tokyo Kagaku Dojin Publishing, 1991). By using this aglycan, polyacrylamide particles containing aglycan were prepared in accordance with the method of Nagase et al. (H. Nagase and J. F. Woessner, Analytical Biochemistry, vol. 107, 385-392, 1980). Namely, aglycan (dry weight: 480 mg) was first added to 28 ml of liquid A [1 M Tris-HCl buffer (pH 8.5) containing 0.2% N,N,N′,N′-tetramethylethylenediamine (TEMED)] and the mixture was stirred at 4° C. for 1 hour. […]
# [2] = molecular target: T1, MMP-13 (Homo sapiens, UniProt P45452); experiment: MMP-13 inhibition test (in vitro); type: biochemical; details: recombinant active MMP-13, fluorescent substrate 20 μM, 1 hour at 37° C.
# T1 construct: made in house; host or cells: COS-1 cells (vector pcDL-SRα296, culture supernatant)
# Source text: MMP-13 exists in chondrocytes and chondrosarcoma cells, and the DNA sequence corresponding to the amino acid sequence of its precursor (proMMP-13) has been reported by Freije et al. (Freije, J. M. P., et al., J. Biol. Chem., vol. 269, 16766-16773, 1994). Therefore, proMMP-13 can be expressed by acquiring cDNA of proMMP-13 from chondrocytes and chondrosarcoma cells in accordance with conventional methods, by incorporating this into an ordinarily used vector, and by introducing this vector into suitable cells to transform the cells.
# An MMP-13 inhibition test can be conducted by, for example, treating recombinant proMMP-13 obtained in the above manner with p-aminophenyl-mercuric(II) acetate (APMA) to convert proMMP-13 to active MMP-13, and then using this as enzyme to measure MMP-13 activity in the presence or absence of a test compound using a fluorescent substrate.
# mRNA was isolated from human chondrosarcoma HCS-2/8, which is a chondrosarcoma cell line established by Takigawa et al. (Jpn. J. Cancer. Res., vol. 85, 364-371, 1994), in accordance with conventional methods, and cDNA of proMMP-13 was acquired by reverse transcription polymerase chain reaction (RT-PCR). 5′-[…]-3′ (Sequence No. 1 of the Sequence listing) and 5′-[…]-3′ (Sequence No. 2 of the Sequence listing), which contain the restriction enzyme cleavage site sacI or KpnI (portions indicated by underlining) were used for primers. […]
# This enzyme solution and substrate (20 μM) were added to 50 mM Tris-HCl buffer (pH 7.5) containing 0.15 M sodium chloride, 10 mM calcium chloride, 0.05% Brij 35 and 0.02% sodium azide to bring the final volume to 0.1 ml, followed by reacting for 1 hour at 37° C. After stopping the reaction by adding 0.1 ml of 3% acetic acid, enzyme activity was determined by measuring with a fluorophotometer (Labsystems Fluoroskan II) at an excitation wavelength of 330 nm and emission wavelength of 390 nm. […]
pIC50 [1],pIC50 [2],melting point [°C],Compound
8.15,,,"CN(C(CCn1c(=O)[nH]c2ccccc2c1=O)C(=O)NO)S(=O)(=O)c1ccc(Oc2ccccc2)cc1 (racemic) [Example 6, (±)-N-Hydroxy-Nα-methyl-Nα-(4-phenoxybenzenesulfonyl)-2-[2-(quinazolin-2,4-dione-3-yl)ethyl]glycinamide]"
8.12,,,"Cc1[nH]c(=O)n(CCC(C(=O)NO)N(C)S(=O)(=O)c2ccc(Oc3ccccc3)cc2)c(=O)c1C (racemic) [Example 18, (±)-2-[2-(5,6-Dimethylpyrimidin-2,4-dione-3-yl)ethyl]-N-hydroxy-Nα-methyl-Nα-(4-phenoxybenzenesulfonyl)glycinamide]"
8.27,9.33,,"CN(C(CCn1c(=O)[nH]c2ccsc2c1=O)C(=O)NO)S(=O)(=O)c1ccc(Oc2ccccc2)cc1 (racemic) [Example 42, (±)-N-Hydroxy-Nα-methyl-Nα-(4-phenoxybenzensulfonyl)-2-[2-(thieno[3,2-d]pyrimidin-2,4-dione-3-yl)ethyl]glycinamide]"
,,155 to 156,"CN(C(CCN1C(=O)c2cc(Cl)c(Cl)cc2C1=O)C(=O)NO)S(=O)(=O)c1ccc(Oc2ccccc2)cc1 (racemic) [Example 84, (±)-2-[2-(4,5-Dichlorophthalimido)ethyl]-N-hydroxy-Nα-methyl-Nα-(4-phenoxybenzenesulfonyl)glycinamide]"
,,157 to 158,"Cc1ccc2c(c1)C(=O)N(CCC(C(=O)NO)N(C)S(=O)(=O)c1ccc(Oc3ccccc3)cc1)C2=O (racemic) [Example 86, (±)-N-Hydroxy-Nα-methyl-2-[2-(4-methylphthalimido)ethyl]-Nα-(4-phenoxybenzenesulfonyl)glycinamide]"
8.31,,,"CN([C@H](CCN1C(=O)c2ccccc2C1=O)C(=O)NO)S(=O)(=O)c1ccc(Oc2ccccc2)cc1 [Example 72, N-Hydroxy-Nα-methyl-Nα-(4-phenoxybenzensulfonyl)-2(R)-(2-phthalimidoethyl)glycinamide]"
8.43,9.37,,"CN([C@H](CCn1c(=O)[nH]c2ccccc2c1=O)C(=O)NO)S(=O)(=O)c1ccc(Oc2cccc(Cl)c2)cc1 [Example 139, Nα-[4-(3-Chlorophenoxy)benzenesulfonyl]-N-hydroxy-Nα-methyl-2(R)-[2-(quinazolin-2,4-dione-3-yl)ethyl]glycinamide]"
8.66,9.49,,"CN([C@H](CCn1c(=O)[nH]c2ccsc2c1=O)C(=O)NO)S(=O)(=O)c1ccc(Oc2cccc(Cl)c2)cc1 [Example 140, Nα-[4-(3-Chlorophenoxy)benzenesulfonyl]-N-hydroxy-Nα-methyl-2(R)-[2-(thieno[3,2-d]pyrimidin-2,4-dione-3-yl)ethyl]glycinamide]"
8.54,,,"CN([C@H](CCN1C(=O)c2ccccc2C1=O)C(=O)NO)S(=O)(=O)c1ccc(Oc2cccc(Cl)c2)cc1 [Example 141, Nα-[4-(3-Chlorophenoxy)benzenesulfonyl]-N-hydroxy-Nα-methyl-2(R)-(2-phthalimidoethyl)glycinamide]"
